According to patent publication US11572590B2, “Methods for evaluating tumor cell spheroids using 3D microfluidic cell culture device” (Dana-Farber Cancer Institute, Inc., priority 2017, dated 2023):
Where two headings read alike, the source gives them in different places.

Key:
Test in all cases: SelectScreen Kinase Profiling, single point inhibition and IC50 for off-target kinases
Assay type in all cases: biochemical
[1] = target: T1, off-target kinases (Homo sapiens, UniProt O15530); conditions: ZLYTE
T1 sequence (O15530 1-556): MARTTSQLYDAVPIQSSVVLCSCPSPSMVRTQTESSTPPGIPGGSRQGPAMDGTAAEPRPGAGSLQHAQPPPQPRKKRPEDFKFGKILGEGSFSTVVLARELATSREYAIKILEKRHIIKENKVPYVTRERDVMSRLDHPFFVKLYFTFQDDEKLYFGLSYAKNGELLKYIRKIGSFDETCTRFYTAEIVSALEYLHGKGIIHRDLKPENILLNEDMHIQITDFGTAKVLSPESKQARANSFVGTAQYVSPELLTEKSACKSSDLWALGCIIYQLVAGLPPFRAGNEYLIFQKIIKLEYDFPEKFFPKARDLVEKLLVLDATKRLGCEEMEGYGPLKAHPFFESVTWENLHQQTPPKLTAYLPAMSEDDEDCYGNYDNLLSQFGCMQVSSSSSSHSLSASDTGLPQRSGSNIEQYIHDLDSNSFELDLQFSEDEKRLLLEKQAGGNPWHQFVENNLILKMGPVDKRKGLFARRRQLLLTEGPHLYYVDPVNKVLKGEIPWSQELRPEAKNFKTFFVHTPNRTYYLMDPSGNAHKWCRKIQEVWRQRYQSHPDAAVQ

[2] = target: off-target kinases (Homo sapiens, UniProt Q9BWU1); conditions: CDK11 (Inactive); Cmpd1 1000 μM; LanthaScreen Binding
Sequence of off-target kinases (Homo sapiens, UniProt Q9BWU1) (Q9BWU1 whole entry): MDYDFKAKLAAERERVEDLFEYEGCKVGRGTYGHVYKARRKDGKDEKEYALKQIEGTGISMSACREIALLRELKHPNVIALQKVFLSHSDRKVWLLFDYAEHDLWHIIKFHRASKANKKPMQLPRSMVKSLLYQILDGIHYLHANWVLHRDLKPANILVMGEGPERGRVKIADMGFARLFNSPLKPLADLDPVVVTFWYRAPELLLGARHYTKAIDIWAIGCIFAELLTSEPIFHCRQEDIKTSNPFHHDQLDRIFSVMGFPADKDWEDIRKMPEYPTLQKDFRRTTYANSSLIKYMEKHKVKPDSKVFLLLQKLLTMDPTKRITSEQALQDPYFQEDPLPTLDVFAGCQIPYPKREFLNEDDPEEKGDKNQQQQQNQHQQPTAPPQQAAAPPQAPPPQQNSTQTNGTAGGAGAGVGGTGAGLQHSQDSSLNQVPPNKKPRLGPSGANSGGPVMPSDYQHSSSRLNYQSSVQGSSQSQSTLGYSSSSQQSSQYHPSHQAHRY

[3] = target: off-target kinases (Homo sapiens, UniProt Q9UKE5); conditions: TNIK, LanthaScreen Binding
Sequence of off-target kinases (Homo sapiens, UniProt Q9UKE5) (Q9UKE5 whole entry): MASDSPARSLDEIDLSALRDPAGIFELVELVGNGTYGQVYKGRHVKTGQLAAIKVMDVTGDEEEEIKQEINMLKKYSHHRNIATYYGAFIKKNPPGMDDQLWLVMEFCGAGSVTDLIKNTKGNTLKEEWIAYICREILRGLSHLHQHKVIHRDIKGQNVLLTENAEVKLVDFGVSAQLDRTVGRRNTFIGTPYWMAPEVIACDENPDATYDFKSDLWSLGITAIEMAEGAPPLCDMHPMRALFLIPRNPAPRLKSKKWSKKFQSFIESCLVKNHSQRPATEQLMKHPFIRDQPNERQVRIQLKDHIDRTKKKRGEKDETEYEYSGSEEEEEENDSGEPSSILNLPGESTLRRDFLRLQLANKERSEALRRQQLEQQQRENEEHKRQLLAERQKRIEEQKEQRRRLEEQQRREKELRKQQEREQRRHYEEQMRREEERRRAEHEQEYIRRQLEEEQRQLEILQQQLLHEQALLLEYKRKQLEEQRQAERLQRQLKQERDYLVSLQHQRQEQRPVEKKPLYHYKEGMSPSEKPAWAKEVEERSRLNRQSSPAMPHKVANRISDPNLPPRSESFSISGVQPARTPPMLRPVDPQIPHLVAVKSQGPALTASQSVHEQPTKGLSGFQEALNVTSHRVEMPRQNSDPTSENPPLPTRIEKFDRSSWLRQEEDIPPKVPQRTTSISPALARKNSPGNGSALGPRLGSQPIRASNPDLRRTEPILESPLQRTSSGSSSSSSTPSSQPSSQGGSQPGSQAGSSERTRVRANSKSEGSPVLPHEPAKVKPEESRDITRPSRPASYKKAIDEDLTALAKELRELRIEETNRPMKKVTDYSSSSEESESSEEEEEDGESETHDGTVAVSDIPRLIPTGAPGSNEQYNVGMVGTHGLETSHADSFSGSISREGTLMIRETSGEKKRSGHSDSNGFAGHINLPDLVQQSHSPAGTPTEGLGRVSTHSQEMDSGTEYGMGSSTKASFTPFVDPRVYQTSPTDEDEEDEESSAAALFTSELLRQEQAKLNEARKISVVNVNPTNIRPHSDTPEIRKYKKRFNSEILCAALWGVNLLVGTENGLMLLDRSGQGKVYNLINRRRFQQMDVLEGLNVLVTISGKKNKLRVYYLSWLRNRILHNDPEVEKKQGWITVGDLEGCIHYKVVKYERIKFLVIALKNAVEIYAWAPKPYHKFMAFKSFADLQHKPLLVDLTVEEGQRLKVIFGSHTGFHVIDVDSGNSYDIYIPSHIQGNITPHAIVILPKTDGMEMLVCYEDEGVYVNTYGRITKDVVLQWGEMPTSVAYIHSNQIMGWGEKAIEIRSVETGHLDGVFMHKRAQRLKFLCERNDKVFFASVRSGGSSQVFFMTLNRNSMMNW

[4] = target: T2, off-target kinases (Homo sapiens, UniProt Q7L7X3); conditions: TAOK1, LanthaScreen Binding
T2 sequence (Q7L7X3 1-1001): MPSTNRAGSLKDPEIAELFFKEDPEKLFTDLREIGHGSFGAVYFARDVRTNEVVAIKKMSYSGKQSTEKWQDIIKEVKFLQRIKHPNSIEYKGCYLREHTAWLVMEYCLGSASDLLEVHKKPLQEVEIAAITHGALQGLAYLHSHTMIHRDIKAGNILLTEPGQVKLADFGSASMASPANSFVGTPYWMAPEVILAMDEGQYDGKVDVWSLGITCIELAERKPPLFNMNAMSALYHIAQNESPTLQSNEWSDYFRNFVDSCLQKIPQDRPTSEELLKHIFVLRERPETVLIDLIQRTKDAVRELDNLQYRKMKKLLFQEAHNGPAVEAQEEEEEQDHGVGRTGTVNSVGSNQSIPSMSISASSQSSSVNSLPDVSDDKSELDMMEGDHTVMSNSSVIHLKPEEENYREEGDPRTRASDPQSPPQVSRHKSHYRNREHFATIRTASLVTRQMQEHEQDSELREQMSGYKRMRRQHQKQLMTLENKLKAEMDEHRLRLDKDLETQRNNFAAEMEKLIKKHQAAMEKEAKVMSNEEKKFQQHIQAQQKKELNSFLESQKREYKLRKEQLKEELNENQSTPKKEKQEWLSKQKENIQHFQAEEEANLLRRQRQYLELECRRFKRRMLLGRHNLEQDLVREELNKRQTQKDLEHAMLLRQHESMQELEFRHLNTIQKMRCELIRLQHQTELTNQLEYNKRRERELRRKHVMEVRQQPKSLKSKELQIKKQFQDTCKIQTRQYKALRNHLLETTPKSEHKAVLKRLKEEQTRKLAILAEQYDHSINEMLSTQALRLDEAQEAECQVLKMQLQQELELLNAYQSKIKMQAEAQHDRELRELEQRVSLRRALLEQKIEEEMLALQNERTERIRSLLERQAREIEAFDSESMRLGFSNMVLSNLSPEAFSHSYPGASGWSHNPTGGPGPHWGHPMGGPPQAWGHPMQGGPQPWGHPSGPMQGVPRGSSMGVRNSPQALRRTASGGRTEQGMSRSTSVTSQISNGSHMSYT

N#Cc1cc(-c2ncnc(Nc3ccc(N4CCN(C5COC5)CC4)cc3)n2)ccc1OC1CCOCC1 [Compound 1, 5-(4-((4-(4-(oxetan-3-yl)piperazin-1-yl)phenyl)amino)-1,3,5-triazin-2-yl)-2-((tetrahydro-2H-pyran-4-yl)oxy)benzonitrile]
inhibition ([1]; PDK1, ATP 100, read-out: % Inhibition 1): 14%
inhibition ([1]; PDK1, ATP 100, read-out: % Inhibition 2): 16%
inhibition ([1]; PDK1, ATP 100, read-out: % Inhibition Avg): 15%
inhibition ([1]; PDK1 Direct, ATP Km app, read-out: % Inhibition 1): 85%
inhibition ([1]; PDK1 Direct, ATP Km app, read-out: % Inhibition 2): 74%
inhibition ([1]; PDK1 Direct, ATP Km app, read-out: % Inhibition Avg): 79%
% Inhibition 1 [2]: −1%
% Inhibition 2 [2]: −7%
% Inhibition Avg [2]: −4%
inhibition ([3]; read-out: % Inhibition 1): 46%
inhibition ([3]; read-out: % Inhibition 2): 43%
inhibition ([3]; read-out: % Inhibition Avg): 45%
inhibition ([4]; read-out: % Inhibition 1): 45%
inhibition ([4]; read-out: % Inhibition 2): 43%
inhibition ([4]; read-out: % Inhibition Avg): 44%
